The source of these data is US20260062422A1 (Halda Therapeutics OpCo, Inc., priority 2022, published 2026).

Bounds are passed on as bounds.

Test [1] deals with T-Rex 293 cell line SC3 cells having increased expression of androgen receptor protein due to exposure to doxycycline. The experiment in a line: Cellular growth inhibition, T-Rex 293 SC3 cells with doxycycline (androgen receptor induced), CellTiter-Glo. The class given is cell-based. The settings on record: 72 h, T-Rex 293 SC3 cells with 10 ng/mL doxycycline (increased androgen receptor expression). The gist of the method:
(§1)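 GI50 came from a four-parameter fit of CellTiter-Glo 2.0 luminescence after 72 h compound exposure (0.5% DMSO, 37 °C), dosing 24 h post-seeding. SC3 clone cells (2500/well), transfected with wild-type androgen receptor, grew in charcoal-stripped serum medium lacking phenol red, induced with 10 ng/mL doxycycline or left uninduced.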
A general note: Cellular ATP, detected with luciferase, serves as a proxy for viable cell number.

Test [2] deals with VCaP cells. The experiment in a line: Cellular growth inhibition assay for VCaP cells, CellTiter-Glo. The class given is cell-based, human. Conditions: Homo sapiens, VCaP, 72 h, 72 hours treatment, CellTiter-Glo 2.0. Summed up:
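GI50 values come from four-parameter curve fits of luminescence data normalized to a zero baseline. Compound, in medium with 0.5% DMSO, was added one day after plating and left for 72 h before CellTiter-Glo 2.0 addition.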

Test [3] concerns T-Rex 293 cell line SC3 cells lacking increased expression of androgen receptor protein. The test is described as follows: Cellular growth inhibition, T-Rex 293 SC3 cells without doxycycline, CellTiter-Glo. The format is cell-based. The settings on record: 72 h, T-Rex 293 SC3 cells not exposed to doxycycline, CellTiter-Glo 2.0. Summed up:
as §1

For test [4], the system named is T47D cells. The experiment in a line: Cellular growth inhibition assay for T47D cells, CellTiter-Glo. The class given is cell-based, human. Conditions: Homo sapiens, T47D, 72 h, 72 hours treatment, CellTiter-Glo 2.0 cell viability. Summed up:
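Growth inhibition as GI50, fitted with four parameters to CellTiter-Glo luminescence after 72 h of compound exposure (0.5% DMSO). Cells were T47D, grown in insulin-supplemented (0.2 units/mL) DMEM with 10% FBS and treated one day post-seeding.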

As usually defined, the GI50 is the concentration at which growth is held to half of that of the control.

In the case of `Cc1sc2c(c1C)C(c1ccc(O[C@H]3CCCN(c4ncc(C(=O)N[C@H]5C(C)(C)[C@H](Oc6ccc(C#N)c(Cl)c6)C5(C)C)cn4)C3)cc1)=N[C@@H](Cc1ncco1)c1nnc(C)n1-2` [Compound I-253], the GI50 in test [1] is less than 0.5 µM; in test [2] it was less than 0.5 µM; in test [3], less than 0.5 µM; in test [4] it was 0.5 to 1.5 µM.
As to `Cc1sc2c(c1C)C(c1ccc(OC[C@@H]3CCCN(c4ncc(C(=O)N[C@H]5C(C)(C)[C@H](Oc6ccc(C#N)c(Cl)c6)C5(C)C)cn4)C3)cc1)=N[C@@H](Cc1ncco1)c1nnc(C)n1-2` [Compound I-254], the 50% growth inhibitory concentration (GI50) in test [1], in test [2], in test [3] and in test [4] was less than 0.5 µM each time.
For `Cc1sc2c(c1C)C(c1ccc(OC[C@H]3CCCN(c4ncc(C(=O)N[C@H]5C(C)(C)[C@H](Oc6ccc(C#N)c(Cl)c6)C5(C)C)cn4)C3)cc1)=N[C@@H](Cc1ncco1)c1nnc(C)n1-2` [Compound I-255], the 50% growth inhibitory concentration (GI50) in test [1], in test [2], in test [3] and in test [4] was less than 0.5 µM throughout.
Take `Cc1sc2c(c1C)C(c1ccc(C(=O)N3CC[C@@]4(CCCN(c5ncc(C(=O)N[C@H]6C(C)(C)[C@H](Oc7ccc(C#N)c(Cl)c7)C6(C)C)cn5)C4)C3)cc1)=N[C@@H](Cc1ncco1)c1nnc(C)n1-2` [Compound I-256]: the GI50 in test [1], in test [2], in test [3] and in test [4] was greater than 3 µM each time.
Regarding `Cc1sc2c(c1C)C(c1ccc(C(=O)N3CC[C@@]4(CCCN(c5ncc(C(=O)N[C@H]6C(C)(C)[C@H](Oc7ccc(C#N)c(Cl)c7)C6(C)C)cn5)C4)C3)cc1)=N[C@H](Cc1ncco1)c1nnc(C)n1-2` [Compound I-257], the GI50 in test [1] was less than 0.5 µM; in test [2] it was greater than 3 µM; in test [3], greater than 3 µM; in test [4] it was 1.5 to 3 µM.
For the molecule `Cc1sc2c(c1C)C(c1ccc(C(=O)N3CC[C@]4(CCCN(c5ncc(C(=O)N[C@H]6C(C)(C)[C@H](Oc7ccc(C#N)c(Cl)c7)C6(C)C)cn5)C4)C3)cc1)=N[C@@H](Cc1ncco1)c1nnc(C)n1-2` [Compound I-258], the GI50 in test [1] was less than 0.5 µM; in test [2], greater than 3 µM; in test [3], greater than 3 µM; in test [4], 1.5 to 3 µM.
In the case of `Cc1sc2c(c1C)C(c1ccc(C(=O)N3CC[C@]4(CCCN(c5ncc(C(=O)N[C@H]6C(C)(C)[C@H](Oc7ccc(C#N)c(Cl)c7)C6(C)C)cn5)C4)C3)cc1)=N[C@H](Cc1ncco1)c1nnc(C)n1-2` [Compound I-259], the GI50 is less than 0.5 µM in test [1], 1.5 to 3 µM in test [2], greater than 3 µM in test [3] and 0.5 to 1.5 µM in test [4].
On to `Cc1sc2c(c1C)C(c1ccc(O[C@@H]3CCCN(c4ncc(C(=O)N[C@H]5C(C)(C)[C@H](Oc6ccc(C#N)c(Cl)c6)C5(C)C)cn4)C3)cc1)=N[C@@H](Cc1ncco1)c1nnc(C)n1-2` [Compound I-260], for which the GI50 in test [1] is less than 0.5 µM; in test [2], less than 0.5 µM; in test [3] it was 1.5 to 3 µM; in test [4] it was less than 0.5 µM.
In the case of `Cc1sc2c(c1C)C(c1ccc(OC3CCN(c4ncc(C(=O)N[C@H]5C(C)(C)[C@H](Oc6ccc(C#N)c(Cl)c6)C5(C)C)cn4)CC3)cc1)=N[C@@H](C)c1nnc(C)n1-2` [Compound I-261], the GI50 in test [1] is less than 0.5 µM; in test [2], 0.5 to 1.5 µM; in test [3], 1.5 to 3 µM; in test [4] it was 0.5 to 1.5 µM.
For the molecule `Cc1sc2c(c1C)C(c1ccc(OC3CC4(CCN(c5ncc(C(=O)N[C@H]6C(C)(C)[C@H](Oc7ccc(C#N)c(Cl)c7)C6(C)C)cn5)CC4)C3)cc1)=N[C@@](C)(C(C)c1ncco1)c1nnc(C)n1-2` (stereo partly drawn) [Compound I-262], the GI50 in test [1] is less than 0.5 µM; in test [2] it was greater than 3 µM; in test [3] it was greater than 3 µM; in test [4], greater than 3 µM.
As for `Cc1sc2c(c1C)C(c1ccc(CNC(=O)C3CCN(c4ncc(C(=O)N[C@H]5C(C)(C)[C@H](Oc6ccc(C#N)c(Cl)c6)C5(C)C)cn4)CC3)cc1)=N[C@@H](Cc1ncco1)c1nnc(C)n1-2` [Compound I-263], the GI50 in test [1] was less than 0.5 µM; in test [2] it was less than 0.5 µM; in test [3], 1.5 to 3 µM; in test [4] it was less than 0.5 µM.
With `Cc1sc2c(c1C)C(c1ccc(CNC(=O)[C@H]3CCCN(c4ncc(C(=O)N[C@H]5C(C)(C)[C@H](Oc6ccc(C#N)c(Cl)c6)C5(C)C)cn4)C3)cc1)=N[C@@H](Cc1ncco1)c1nnc(C)n1-2` [Compound I-264], the GI50 in test [1], in test [2], in test [3] and in test [4] was less than 0.5 µM throughout.
For `Cc1sc2c(c1C)C(c1ccc(CNC(=O)[C@@H]3CCCN(c4ncc(C(=O)N[C@H]5C(C)(C)[C@H](Oc6ccc(C#N)c(Cl)c6)C5(C)C)cn4)C3)cc1)=N[C@@H](Cc1ncco1)c1nnc(C)n1-2` [Compound I-265], the 50% growth inhibitory concentration (GI50) in test [1] was less than 0.5 µM; in test [2] it was less than 0.5 µM; in test [3], 1.5 to 3 µM; in test [4], less than 0.5 µM.
With `Cc1sc2c(c1C)C(c1ccc(CNC(=O)CN(C)c3ncc(C(=O)N[C@H]4C(C)(C)[C@H](Oc5ccc(C#N)c(Cl)c5)C4(C)C)cn3)cc1)=N[C@@H](Cc1ncco1)c1nnc(C)n1-2` [Compound I-266], the 50% growth inhibitory concentration (GI50) in test [1] was less than 0.5 µM; in test [2], less than 0.5 µM; in test [3], greater than 3 µM; in test [4], 0.5 to 1.5 µM.
For `Cc1sc2c(c1C)C(c1ccc(C#C[C@H]3C[C@@]4(CCCN(c5ncc(C(=O)N[C@H]6C(C)(C)[C@H](Oc7ccc(C#N)c(Cl)c7)C6(C)C)cn5)C4)C3)cc1)=N[C@@H](Cc1ncco1)c1nnc(C)n1-2` [Compound I-268], the 50% growth inhibitory concentration (GI50) in test [1] was less than 0.5 µM; in test [2], 1.5 to 3 µM; in test [3], greater than 3 µM; in test [4], 0.5 to 1.5 µM.
With `Cc1sc2c(c1C)C(c1ccc(C#C[C@H]3C[C@]4(CCCN(c5ncc(C(=O)N[C@H]6C(C)(C)[C@H](Oc7ccc(C#N)c(Cl)c7)C6(C)C)cn5)C4)C3)cc1)=N[C@@H](Cc1ncco1)c1nnc(C)n1-2` [Compound I-269], the GI50 in test [1] is less than 0.5 µM; in test [2], 1.5 to 3 µM; in test [3] it was greater than 3 µM; in test [4], 0.5 to 1.5 µM.
For `Cc1sc2c(c1C)C(c1ccc(CCN3CC4(CCCN(c5ncc(C(=O)N[C@H]6C(C)(C)[C@H](Oc7ccc(C#N)c(Cl)c7)C6(C)C)cn5)C4)C3)cc1)=N[C@@H](Cc1ncco1)c1nnc(C)n1-2` [Compound I-272] the same measures were less than 0.5 µM, less than 0.5 µM, 0.5 to 1.5 µM and less than 0.5 µM.
For `Cc1sc2c(c1C)C(c1ccc(OC3CC4(CCN(c5ncc(C(=O)N[C@H]6C(C)(C)[C@H](Oc7ccc(C#N)c(Cl)c7)C6(C)C)cn5)CC4)C3)cc1)=N[C@](C)(C(C)c1ncco1)c1nnc(C)n1-2` (stereo partly drawn) [Compound I-273], the GI50 in test [1] was less than 0.5 µM; in test [2], greater than 3 µM; in test [3], greater than 3 µM; in test [4], greater than 3 µM.
For `Cc1sc2c(c1C)C(c1ccc(NCC(=O)N3CCC(c4ncc(C(=O)N[C@H]5C(C)(C)[C@H](Oc6ccc(C#N)c(Cl)c6)C5(C)C)cn4)CC3)cc1)=N[C@@H](Cc1ncco1)c1nnc(C)n1-2` [Compound I-274], the GI50 was less than 0.5 µM in test [1], greater than 3 µM in test [2], greater than 3 µM in test [3] and 0.5 to 1.5 µM in test [4].
`Cc1sc2c(c1C)C(c1ccc(NCC(=O)N3CCC(c4ncc(C(=O)N[C@H]5C(C)(C)[C@H](Oc6ccc(C#N)c(Cl)c6)C5(C)C)cn4)CC3)cc1)=N[C@H](Cc1ncco1)c1nnc(C)n1-2` [Compound I-275]: the GI50 in test [1], in test [2], in test [3] and in test [4] was less than 0.5 µM in each case.
On to `Cc1sc2c(c1C)C(c1ccc(N3CCC(CNC(=O)c4ncc(C(=O)N[C@H]5C(C)(C)[C@H](Oc6ccc(C#N)c(Cl)c6)C5(C)C)cn4)CC3)cc1)C[C@@H](Cc1ncco1)c1nnc(C)n1-2` (stereo partly drawn) [Compound I-276], for which the concentration for 50% growth inhibition (GI50) is greater than 3 µM in test [1], 1.5 to 3 µM in test [2], greater than 3 µM in test [3] and greater than 3 µM in test [4].
`Cc1sc2c(c1C)C(c1ccc(CCCOC3CCN(c4ncc(C(=O)N[C@H]5C(C)(C)[C@H](Oc6ccc(C#N)c(Cl)c6)C5(C)C)cn4)CC3)cc1)=N[C@@H](Cc1cnccn1)c1nnc(C)n1-2` [Compound I-277]: the GI50 was less than 0.5 µM in test [1], greater than 3 µM in test [2], greater than 3 µM in test [3] and greater than 3 µM in test [4].
On to `Cc1sc2c(c1C)C(c1ccc(CCCOC3CCN(c4ncc(C(=O)N[C@H]5C(C)(C)[C@H](Oc6ccc(C#N)c(Cl)c6)C5(C)C)cn4)CC3)cc1)=N[C@H](Cc1cnccn1)c1nnc(C)n1-2` [Compound I-278], for which the GI50 in test [1], in test [2], in test [3] and in test [4] was less than 0.5 µM each time.
With `Cc1sc2c(c1C)C(c1ccc(OC3CC4(CCN(c5ncc(C(=O)N[C@H]6C(C)(C)[C@H](Oc7ccc(C#N)c(Cl)c7)C6(C)C)cn5)CC4)C3)cc1)=N[C@@H](Cc1ncon1)c1nnc(C)n1-2` [Compound I-279], the concentration for 50% growth inhibition (GI50) in test [1] is less than 0.5 µM; in test [2], 1.5 to 3 µM; in test [3], greater than 3 µM; in test [4], less than 0.5 µM.
